From article PMC10504751, “Chalcone/1,3,4-Oxadiazole/Benzimidazole hybrids as novel anti-proliferative agents inducing apoptosis and inhibiting EGFR & BRAFV^600E” (BMC Chemistry, 2023)
Where two headings read alike, the source gives them in different places.

How the values were obtained:
HT-29 = assay: Propidium iodide anti-proliferative assay; assay type: cell-based; conditions: Homo sapiens, 48 h incubation, read-out: IC50 ± SEM HT-29
How it was run: (§1)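 Cells seeded at 3000-7500 cells/well and grown 24 h at 37 °C, then treated with compounds (10 µM in 0.1% DMSO, triplicate; IC50 runs at varied concentrations) for 48 h. PI added, plates frozen 24 h at -80 °C and thawed, fluorescence read at 530/620 nm; % cytotoxicity versus 0.1% DMSO control.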

MCF-7 = assay: Propidium iodide anti-proliferative assay; assay type: cell-based; conditions: Homo sapiens, MCF7; 48 h incubation; read-out: IC50 ± SEM MCF-7
How it was run: as §1

Panc-1 = assay: Propidium iodide anti-proliferative assay; assay type: cell-based; conditions: Homo sapiens, 48 h incubation, read-out: IC50 ± SEM Panc-1
How it was run: as §1

A-549 = assay: Propidium iodide anti-proliferative assay; assay type: cell-based; conditions: Homo sapiens, A549; 48 h incubation; read-out: IC50 ± SEM A-549
How it was run: as §1

[1] = MTT cell viability assay in normal cells; assay type: cell-based; conditions: human, MCF-10A normal mammary epithelial cells
How it was run: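 MTT read-out (540 nm after DMSO solubilization) of viability in non-tumour MCF-10A breast epithelial cells. Compounds applied at 50 µM in 0.1% DMSO, cells incubated 4 days at 37°C in quadruplicate.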

UACC-62 = assay: NCI one-dose SRB anti-proliferative screen; assay type: cell-based; conditions: Homo sapiens, read-out: Cell growth inhibition %
Method: (§2) The twenty-four synthesized compounds were submitted to the National Cancer Institute (NCI), USA. Eighteen hybrids 7a-h, 7k-r, 7u, and 7v were selected by NCI for one-dose assessment of their anti-proliferative activities at 10 µM dose by Sulforhodamine B colorimetric assay. The assessment was performed in 60 cell lines derived from nine tumor subpanels, comprising lung, leukemia, melanoma, colon, renal, CNS, prostate, breast, and ovarian cancer cell lines.
(§3) The methodology of the NCI anti-proliferative screening has been described in details elsewhere (http://www.dtp.nci.nih.gov).

HOP-62 = assay: NCI one-dose SRB anti-proliferative screen; assay type: cell-based; conditions: Homo sapiens, read-out: Cell growth inhibition %
Method: as §2, §3

EKVX = assay: NCI one-dose SRB anti-proliferative screen; assay type: cell-based; conditions: Homo sapiens, read-out: Cell growth inhibition %
Method: as §2, §3

HCT-116 = assay: NCI one-dose SRB anti-proliferative screen; assay type: cell-based, human; conditions: for Growth Percent: 10 µM one dose; for inhibition at 10 µM: Homo sapiens, read-out: Cell growth inhibition %
Method: as §2, §3

MOLT-4 = assay: NCI one-dose SRB anti-proliferative screen; assay type: cell-based, human; conditions: Homo sapiens, read-out: Cell growth inhibition %
Method: as §2, §3

T-47D = assay: NCI one-dose SRB anti-proliferative screen; assay type: cell-based, human; conditions: Homo sapiens, T47D, read-out: Cell growth inhibition %
Method: as §2, §3

K-562 = assay: NCI one-dose SRB anti-proliferative screen; assay type: cell-based, human; conditions: for inhibition at 10 µM: Homo sapiens, K562, read-out: Cell growth inhibition %
Method: as §2, §3

RXF 393 = assay: NCI one-dose SRB anti-proliferative screen; assay type: cell-based, human; conditions: Homo sapiens, read-out: Cell growth inhibition %
Method: as §2, §3

[2] = UACC-62, Melanoma, NCI one dose
[3] = HOP-62, Non-Small Cell Lung Cancer, NCI one dose
[4] = EKVX, Non-Small Cell Lung Cancer, NCI one dose
[5] = HCT-116, Colon cancer, NCI one dose
[6] = T-47D, Breast cancer, NCI one dose
[7] = RXF 393, Renal cancer, NCI one dose
[8] = UACC-62 (Melanoma), NCI one dose 10 µM
[9] = HOP-62 (Non-Small Cell Lung Cancer), NCI one dose 10 µM
[10] = EKVX (Non-Small Cell Lung Cancer), NCI one dose 10 µM
[11] = HCT-116 (Colon Cancer), NCI one dose 10 µM
[12] = MOLT-4 (Leukemia), NCI one dose 10 µM
[13] = T-47D (Breast Cancer), NCI one dose 10 µM
[14] = K-562 (Leukemia), NCI one dose 10 µM
[15] = RXF 393 (Renal Cancer), NCI one dose 10 µM

Structure (SMILES)	melting point	IC50 (HT-29)	IC50 (MCF-7)	IC50 (Panc-1)	IC50 (A-549)	viability at 96 h, 50 µM [1]	inhibition at 10 µM (UACC-62; [2])	inhibition at 10 µM (HOP-62; [3])	inhibition at 10 µM (EKVX; [4])	Growth Percent (HCT-116; HCT-116 (Colon Cancer))	inhibition at 10 µM (HCT-116; [5])	inhibition at 10 µM (MOLT-4; MOLT-4, Leukemia, NCI one dose)	inhibition at 10 µM (UACC-62; [8])	inhibition at 10 µM (HOP-62; [9])	inhibition at 10 µM (EKVX; [10])	inhibition at 10 µM (HCT-116; [11])	inhibition at 10 µM (MOLT-4; [12])	inhibition at 10 µM (T-47D; [13])	inhibition at 10 µM (K-562; [14])	inhibition at 10 µM (RXF 393; [15])	other results
COc1ccc(-c2nc3cc(-c4nnc(SCC(=O)Nc5ccc(C(=O)/C=C/c6ccc(OC)c(OC)c6)cc5)o4)ccc3[nH]2)cc1 [Compound 7n, 2-{5-[2-(4-Methoxyphenyl)-1 H-benzo[d]imidazol-5-yl]-1,3,4-oxadiazol-2-ylthio}-N-{4-[(E)-3-(3,4-dimethoxyphenyl)acryloyl]phenyl}acetamide]	222 to 224 °C	2.2 ± 0.6 µM	1.65 ± 0.3 µM	2.05 ± 0.5 µM	1.9 ± 0.6 µM	92%	15.8%	5.22%	4.36%	57.96%	42%	35.7%	–	–	–	–	–	–	–	–	inhibition at 10 µM (T-47D; [6]): 15.4%; inhibition at 10 µM (K-562; K-562, Leukemia, NCI one dose): 52.1%; Growth Percent (K-562; K-562 (Leukemia), 10 µM one dose): 47%; inhibition at 10 µM (RXF 393; [7]): 31.5%
COc1ccc(-c2nc3cc(-c4nnc(SCC(=O)Nc5ccc(C(=O)/C=C/c6cc(OC)c(OC)c(OC)c6)cc5)o4)ccc3[nH]2)cc1 [Compound 7o, 2-{5-[2-(4-Methoxyphenyl)-1 H-benzo[d]imidazol-5-yl]-1,3,4-oxadiazol-2-ylthio}-N-{4-[(E)-3-(3,4,5-trimethoxyphenyl)acryloyl]phenyl}acetamide]	154 to 156 °C	8.6 ± 0.4 µM	7.1 ± 0.6 µM	8.2 ± 1.2 µM	7.6 ± 0.3 µM	89%	5.12%	0%	0%	50.04%	0%	9%	–	–	–	–	–	–	–	–	inhibition at 10 µM (T-47D; [6]): 0%; inhibition at 10 µM (K-562; K-562, Leukemia, NCI one dose): 8.26%; inhibition at 10 µM (RXF 393; [7]): 0%
COc1ccc(-c2nc3cc(-c4nnc(SCC(=O)Nc5ccc(C(=O)/C=C/c6ccccc6)cc5)o4)ccc3[nH]2)cc1OC [Compound 7p, 2-{5-[2-(3,4-Dimethoxyphenyl)-1 H-benzo[d]imidazol-5-yl]-1,3,4-oxadiazol-2-ylthio}-N-{4-[(E)-3-phenylacryloyl]phenyl}acetamide]	185 to 186 °C	3.3 ± 0.4 µM	2.1 ± 0.2 µM	3.1 ± 0.4 µM	2.5 ± 0.5 µM	87%	–	–	–	–	–	–	4.99%	0%	0%	10.3%	19.5%	13.1%	8.36%	0%	–
COc1ccc(-c2nc3cc(-c4nnc(SCC(=O)Nc5ccc(C(=O)/C=C/c6ccc(Cl)cc6)cc5)o4)ccc3[nH]2)cc1OC [Compound 7q, 2-{5-[2-(3,4-Dimethoxyphenyl)-1 H-benzo[d]imidazol-5-yl]-1,3,4-oxadiazol-2-ylthio}-N-{4-[(E)-3-(4-chlorophenyl)acryloyl]phenyl}acetamide]	194 to 195 °C	3.7 ± 0.5 µM	3.02 ± 0.3 µM	3.8 ± 0.5 µM	3.4 ± 0.4 µM	94%	–	–	–	–	–	–	1.95%	0%	8.14%	0%	24.2%	10.6%	7.27%	0%	–
COc1ccc(/C=C/C(=O)c2ccc(NC(=O)CSc3nnc(-c4ccc5[nH]c(-c6ccc(OC)c(OC)c6)nc5c4)o3)cc2)cc1 [Compound 7r, 2-{5-[2-(3,4-Dimethoxyphenyl)-1 H-benzo[d]imidazol-5-yl]-1,3,4-oxadiazol-2-ylthio}-N-{4-[(E)-3-(4-methoxyphenyl)acryloyl]phenyl}acetamide]	170 to 171 °C	4.2 ± 0.5 µM	3.1 ± 0.5 µM	3.9 ± 0.5 µM	3.6 ± 0.5 µM	91%	–	–	–	–	–	–	11%	0%	3.51%	3.79%	34.5%	28.9%	21.9%	0%	–
COc1cc(-c2nc3cc(-c4nnc(SCC(=O)Nc5ccc(C(=O)/C=C/c6ccccc6)cc5)o4)ccc3[nH]2)cc(OC)c1OC [Compound 7u, 2-{5-[2-(3,4,5-Trimethoxyphenyl)-1 H-benzo[d]imidazol-5-yl]-1,3,4-oxadiazol-2-ylthio}-N-{4-[(E)-3-phenylacryloyl]phenyl}acetamide]	188 to 190 °C	2.7 ± 0.5 µM	2.1 ± 0.08 µM	2.4 ± 0.2 µM	2.25 ± 0.5 µM	90%	–	–	–	–	–	–	8.01%	0%	0%	26.5%	21.8%	14.8%	14.9%	0%	–
